Patent US20090304668A1, “LARVAL POLYPEPTIDES HAVING A NUCLEASE ACTIVITY” (The Secretary of State for Defence, priority 2006, published 2009)

Experiments:
bacterial genomic DNA = assay: Agarose gel electrophoresis of bacterial genomic DNA in presence of soybean trypsin inhibitor and EDTA; type: biochemical, E. coli; conditions: 20 minutes 37° C.
Description: Samples containing bacterial genomic DNA, and ES or DNase in the absence and presence of EDTA and a soybean trypsin inhibitor were loaded onto an agarose gel to observe the effects of these inhibitors on DNase activity. A soybean trypsin inhibitor (Sigma) was washed 4 times with PBS and each time centrifuged into a pellet and the PBS removed as the supernatant. On the 5th washing, 500 μl of PBS were used to suspend the trypsin inhibitor and this was equally distributed between the samples to be treated. Samples of ES 162.3 μg/ml and PBS (control) were treated with the soybean trypsin inhibitor in order to remove any serine proteinases present. These samples were treated with STI 3 times in order to achieve maximal removal of serine proteinases, again following each treatment the solution was centrifuged and the ES/PBS removed as the supernatant. Following washing, these solutions were transferred to a fresh Eppendorf.
15.34 μl of 1.385 mg/ml bacterial genomic DNA was diluted to 0.1 mg/ml in 184.6 μl of either sterile PBS or 5 mM EDTA. 121.1 μg/ml DNase was also made up (10 μl of 1 mg/ml diluted in 72.6 μl of PBS.) In order to make up the samples, 50 μl of the appropriate one of these DNA solutions plus 3.125 μl of STI treated/untreated DNase/ES/PBS. […]

DNA methyl green [1] = assay: Dose dependency curves (DNA methyl green, 96 well plate); type: biochemical; conditions: for EC50: 37° C.
Description: In order to further characterise ES, dose dependency curves were created enabling the EC50 value to be determined. ES was diluted to a concentration of 13.40 μg/ml in PBS, following this 1 in 10 dilutions in PBS were then performed. DNase was diluted to a concentration of 10 μg/ml in PBS, this was then also subject to 1 in 10 dilutions. 20 μl of each dilution was added to 180 μl of 0.2 mg/ml DNA methyl green in a 96 well plate (done in triplicate). Absorbance readings were then taken after 3, 18, and 24 hours at 630 nm in an Anthos Lucy1 microplate luminometer. The dose dependency curves were created by plots of log10 concentration (mcg/ml) against mean absorbance (630 nm) in the statistical analysis program, GraphPad Prism™.

DNA methyl green [2] = assay: DNA methyl green assay of ES and DNase activity in the presence of EDTA; type: biochemical; conditions: 5.07 μg/ml ES, 3.78 μg/ml DNase
Description: 125 μl of 81.15 μg/ml ES was added to both 1875 μl DNA methyl green (0.2 mg/ml) and DNA methyl green containing 5 mM EDTA. Final concentrations are therefore 5.07 μg/ml ES and 4.7 mM EDTA. DNase was diluted to 121.1 μg/ml, diluted 1 in 2 and added to 1875 μl of DNA methyl green and DNA methyl green containing EDTA. The activity of STI treated ES was also assayed in the same way, in the presence of or in the absence of EDTA. These samples were then incubated in a water bath at 37° C. 100 μl samples were taken every 2 minutes (in triplicate) and added to 150 μl of 0.083M sodium citrate in a 96 well plate. The plates were left to stand overnight and the absorbance then read at 630 nm in an Anthos Lucy1 microplate luminometer.

For DNase, the “degradation of bacterial genomic DNA in presence of EDTA” value (bacterial genomic DNA; 5 mM EDTA) was “no DNase activity”, the “degradation of bacterial genomic DNA in absence of EDTA” value (bacterial genomic DNA; untreated, no EDTA) was “no DNase activity” and the EC50 (DNA methyl green [1]; absorbance reading at 3 hours) was 0.1921 µg/mL. For the same substance, the EC50 (DNA methyl green [1]; absorbance reading at 18 hours) was 0.0605 µg/mL, the EC50 (DNA methyl green [1]; absorbance reading at 24 hours) was 0.0571 µg/mL and the “potency of DNase relative to ES” value (DNA methyl green [1]; from EC50 values) was 3 times. The “DNase activity in the presence of EDTA” value (DNA methyl green [2]; EDTA) was “activity almost abolished” and the “DNase activity in the absence of EDTA” value (DNA methyl green [2]; no EDTA) was “relatively similar activity”.
